In US7153979B2, “Triterpene derivatives and remedies for liver diseases” (Meiji Seika Kaisha, Ltd., priority 1996, dated 2006):

System: hepatitis induced by concanavalin A in mice
Test: Concanavalin A (Con A) hepatitis model, plasma ALT
Type: in vivo, BALB/c male mice
Details: 24 hr after Con A, control group 2068±518
Method: Effect in Concanavalin A (Con A) Hepatitis Model
Con A dissolved in physiological saline was intravenously administered at a dose of 20 mg/kg to BALB/c male mice (8 weeks in age) having a body weight of 21 to 25 g to induce hepatitis. A test compound (compound 7) was suspended in a mixed solution (control vehicle) composed of 25% dimethylsufoxide, 25% polyethylene glycol 400, and 0.25% carboxymethyl cellulose, and the suspension was subcutaneously administered 2 hr and 14 hr before the administration of Con A at three levels of dose, i.e., 0.2 mg/mouse, 1.0 mg/mouse, and 2.0 mg/mouse. A control vehicle alone was administered to a group of control mice. Twenty four hr after the administration of Con A, the mice were sacrificed under ether anesthesia to assay the alanine aminotransferase (ALT) activity, in plasma, as an index of hepatopathy.

## CC1(C)C[C@H]2C3=CC[C@@H]4[C@@]5(C)CC[C@H](O)[C@](C)(CO)[C@@H]5CC[C@@]4(C)[C@]3(C)CC[C@@]2(C)[C@H](O)[C@@H]1O [Compound 7, Soyasapogenol A]
1.0 mg/mouse subcutaneously 2 hr and 14 hr before Con A 20 mg/kg i.v.
  alanine aminotransferase (ALT) activity in plasma: 55±16 u/l
2.0 mg/mouse subcutaneously 2 hr and 14 hr before Con A 20 mg/kg i.v.
  alanine aminotransferase (ALT) activity in plasma: 55±16 u/l
